Data from patent US11214803B2, “Modulators of YAP1 expression” (Ionis Pharmaceuticals, Inc., priority 2019, dated 2022).
pIC50: −log10 of the molar value. Strand notation (5' to 3'): a small letter for the sugar, then the base; units joined by * are phosphorothioate-linked, units joined directly phosphodiester-linked; [ ] holds rarer units or linkages, { } end groups; capitals alone tell only the bases. k = constrained ethyl (cEt); [5mC] = 5-methylcytosine; d = 2'-deoxy (DNA)

Legend:
[1] = test system: Yap1 mRNA; assay: Dose-dependent inhibition of human Yap1 in A-431 cells (Example 8, 10,000 cells per well, RTS4814); assay type: cell-based; settings: for Yap1 mRNA, % UTC: A-431 cells, 10,000 cells per well; for pIC50 / % UTC (Yap1 mRNA): A-431 cells
How it was run: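 Yap1 mRNA, normalized to RIBOGREEN total RNA and expressed as % untreated control, was read with RTS4814 about 48 h after free-uptake oligonucleotide treatment of A-431 cells at 10,000 cells/well. IC50 derived by linear regression of log/linear data.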

[2] = test system: Yap1 mRNA; assay: Antisense inhibition of human Yap1 in A-431 cells by cEt gapmers, single dose (Example 3, RTS36584); assay type: cell-based
How it was run: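 A-431 cells (5,000/well) took up the 3-10-3 cEt gapmers by free uptake at 2,000 nM for about 48 h. Yap1 mRNA was measured by RT-qPCR with primer probe set RTS36584, normalized to RiboGreen total RNA, and given as % of untreated control.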

[3] = 31.3 nM, free uptake, approximately 48 hours, RTS4814
[4] = 125.0 nM, free uptake, approximately 48 hours, RTS4814
[5] = 500.0 nM, free uptake, approximately 48 hours, RTS4814
[6] = 2000.00 nM, free uptake, approximately 48 hours, RTS4814
[7] = free uptake, approximately 48 hours, RTS4814, linear regression on log/linear plot
[8] = Table 27, Yap1 mRNA by 3-10-3 cEt gapmers targeting SEQ ID NO.: 1, and 2, percent of untreated control
[9] = Table 35, Yap1 mRNA as percent of untreated control, 3-10-3 cEt gapmers targeting SEQ ID NO: 1 and 2, single dose
[10] = Table 29, Yap1 mRNA as percent of untreated control, 3-10-3 cEt gapmers targeting SEQ ID NO.: 1, and 2
[11] = Table 9, A-431 cells, 5,000 cells per well, free uptake, 2,000 nM, approximately 48 hours, RTS36584, normalized to RIBOGREEN, Yap1 mRNA relative to untreated control cells

1076430 (k[5mC]*kG*kT*dT*dA*dT*dA*dA*dG*dA*dT*dG*dT*kG*k[5mC]*kT; antisense) [compound 1076430]
Yap1 mRNA, % UTC [1, 3]: 42 % UTC | Yap1 mRNA, % UTC [1, 4]: 14 % UTC | Yap1 mRNA, % UTC [1, 5]: 6 % UTC | Yap1 mRNA, % UTC [1, 6]: 4 % UTC | pIC50 [1, 7]: > 7.70 | YAP1 (% UTC) ([2]; Table 28, Yap1 mRNA as percent of untreated control, 3-10-3 cEt gapmers targeting SEQ ID NO.: 1, and 2): 4 % UTC

1074413 (kA*k[5mC]*kT*dG*dT*dG*dA*dA*dA*dG*dA*dG*dG*kT*k[5mC]*kA; antisense) [compound 1074413]
Yap1 mRNA, % UTC [1, 3]: 50 % UTC | Yap1 mRNA, % UTC [1, 4]: 19 % UTC | Yap1 mRNA, % UTC [1, 5]: 6 % UTC | Yap1 mRNA, % UTC [1, 6]: 3 % UTC | pIC50 [1, 7]: > 7.70 | YAP1 (% UTC) [2, 8]: 4 % UTC

1075701 (kA*kA*kT*dT*dA*d[5mC]*dT*dA*dG*dA*dG*dG*d[5mC]*kT*kT*k[5mC]; antisense) [compound 1075701]
% UTC (Yap1 mRNA) ([1]; 31.3 nM): 84 % UTC | % UTC (Yap1 mRNA) ([1]; 125.0 nM): 34 % UTC | % UTC (Yap1 mRNA) ([1]; 500.0 nM): 11 % UTC | % UTC (Yap1 mRNA) ([1]; 2000.00 nM): 6 % UTC | pIC50 ([1]; Yap1 mRNA): 7.00 | YAP1 (% UTC) [2, 9]: 3 % UTC

1076085 (kA*k[5mC]*kT*dA*dA*dT*dA*dG*dG*d[5mC]*d[5mC]*dA*dT*k[5mC]*kT*kG; antisense) [compound 1076085]
% UTC (Yap1 mRNA) ([1]; 31.3 nM): 70 % UTC | % UTC (Yap1 mRNA) ([1]; 125.0 nM): 34 % UTC | % UTC (Yap1 mRNA) ([1]; 500.0 nM): 14 % UTC | % UTC (Yap1 mRNA) ([1]; 2000.00 nM): 9 % UTC | pIC50 ([1]; Yap1 mRNA): 7.00 | YAP1 (% UTC) [2, 9]: 7 % UTC

1076367 (antisense k[5mC]*kT*kA*dT*dT*dT*dA*d[5mC]*dA*dT*dG*dA*dG*kA*kG*kG) [compound 1076367]
Yap1 mRNA, % UTC [1, 3]: 31 % UTC | Yap1 mRNA, % UTC [1, 4]: 10 % UTC | Yap1 mRNA, % UTC [1, 5]: 4 % UTC | Yap1 mRNA, % UTC [1, 6]: 3 % UTC | pIC50 [1, 7]: > 7.70 | YAP1 (% UTC) [2, 10]: 3 % UTC

1075916 (antisense k[5mC]*kA*kA*dT*dT*dT*dA*dG*dG*dA*dT*dG*d[5mC]*k[5mC]*kT*kT) [compound 1075916]
Yap1 mRNA, % UTC [1, 3]: 73 % UTC | Yap1 mRNA, % UTC [1, 4]: 34 % UTC | Yap1 mRNA, % UTC [1, 5]: 14 % UTC | Yap1 mRNA, % UTC [1, 6]: 8 % UTC | pIC50 [1, 7]: 7.00 | YAP1 (% UTC) ([2]; Table 26, Yap1 mRNA by 3-10-3 cEt gapmers targeting SEQ ID NO.: 1, and 2, percent of untreated control): 6 % UTC

958631 (antisense kT*kG*k[5mC]*dA*dA*dA*dT*dA*dG*dG*dA*dG*dA*kG*kG*kG) [Compound 958631]
YAP1 (% UTC) [2, 11]: 122 % UTC

1074132 (k[5mC]*kG*kG*d[5mC]*d[5mC]*d[5mC]*d[5mC]*dG*d[5mC]*dA*dT*d[5mC]*d[5mC]*k[5mC]*k[5mC]*k[5mC]; antisense) [compound 1074132]
YAP1 (% UTC) ([2]; Table 34, Yap1 mRNA as percent of untreated control, 3-10-3 cEt gapmers targeting SEQ ID NO: 1 and 2, single dose): 96 % UTC

958396 (antisense kA*kG*kG*d[5mC]*dT*dA*dT*dT*dA*dA*dG*d[5mC]*dT*kG*kT*kT) [Compound 958396]
YAP1 (% UTC) ([2]; Table 8, A-431 cells, 5,000 cells per well, free uptake, 2,000 nM, approximately 48 hours, RTS36584, normalized to RIBOGREEN, Yap1 mRNA relative to untreated control cells): 131 % UTC

958596 (kA*kG*k[5mC]*dA*dG*dT*dT*dA*dA*dG*d[5mC]*dA*d[5mC]*kT*kT*kT; antisense) [Compound 958596]
YAP1 (% UTC) [2, 11]: 3 % UTC

1075189 (kG*k[5mC]*kT*dA*dA*dT*dA*dG*dT*d[5mC]*dA*d[5mC]*dT*kG*kT*kT; antisense) [compound 1075189]
YAP1 (% UTC) [2, 9]: 11 % UTC

1075957 (k[5mC]*kT*kA*dT*dA*dA*dA*dG*d[5mC]*dA*dA*dT*dG*k[5mC]*kG*kA; antisense) [compound 1075957]
YAP1 (% UTC) [2, 9]: 28 % UTC

1074677 (antisense k[5mC]*kT*kA*d[5mC]*dT*dG*dG*d[5mC]*dA*dA*dA*dT*dT*kA*kT*kA) [compound 1074677]
YAP1 (% UTC) [2, 9]: 22 % UTC

1075821 (k[5mC]*kT*kT*dA*dA*d[5mC]*dT*dT*d[5mC]*d[5mC]*d[5mC]*dA*d[5mC]*kT*k[5mC]*kG; antisense) [compound 1075821]
YAP1 (% UTC) [2, 8]: 22 % UTC

958787 (antisense kT*kG*kG*dG*d[5mC]*dA*dA*dA*dG*dT*dT*d[5mC]*d[5mC]*kT*k[5mC]*kT) [Compound 958787]
YAP1 (% UTC) ([2]; Table 10, A-431 cells, 5,000 cells per well, free uptake, 2,000 nM oligonucleotide, approx. 48 hours, primer probe set RTS36584, Yap1 mRNA normalized to RIBOGREEN, percent of untreated control): 67 % UTC

1076047 (kA*k[5mC]*kT*dT*dA*dA*dA*dT*dG*dG*dT*dG*d[5mC]*kA*kA*kT; antisense) [compound 1076047]
YAP1 (% UTC) [2, 10]: 34 % UTC
